Assays:
[1] = tested on: effect produced in the guinea pig by a histamine aerosol; experiment: Test of A. K. Armitage, histamine aerosol at 4%; type: in vivo; conditions: oral administration of 5 mg/kg
Experimental: When submitted to the test of A. K. Armitage, Brit J. Pharmacol. 17, 196, (1961), the compounds according to the invention administered by oral route at doses between 0.5 and 10 mg/kg, depending on the compounds, inhibit by 50% the effect produced in the guinea pig by a histamine aerosol at 4%. For certain of these compounds, the effect is still very strong 48 hours after oral administration.
By way of non-restricting example, the oral administration of 5 mg/kg of the compound of example 1, inhibits for more than 48 hours the broncho-spasm caused be a histamine aerosol at 4%. In addition, a reduction of the anaphylactic cutaneous reaction is observed in the rat after a single administration of 20 mg/kg per os of this compound.

A 1 receptors = molecular target: T1, A 1 receptors (Homo sapiens, UniProt P30542); experiment: Purinergic A 1 receptors; type: binding
T1 sequence (P30542 1-326): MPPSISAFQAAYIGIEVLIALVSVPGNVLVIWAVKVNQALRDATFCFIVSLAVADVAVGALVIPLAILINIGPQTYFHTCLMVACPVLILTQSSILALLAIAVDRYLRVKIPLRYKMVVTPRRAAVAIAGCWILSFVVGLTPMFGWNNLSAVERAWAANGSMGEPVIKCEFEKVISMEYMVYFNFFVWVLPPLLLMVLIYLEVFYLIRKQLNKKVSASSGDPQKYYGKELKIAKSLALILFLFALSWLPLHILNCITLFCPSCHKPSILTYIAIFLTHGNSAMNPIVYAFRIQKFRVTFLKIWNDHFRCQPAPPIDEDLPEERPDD

IC50 (A 1 receptors): > 100 µM
SMILES: CC(C)Cn1c(=O)n(C)c(=O)c2[nH]c(CCN3CCN(C(c4ccccc4)c4ccccc4)CC3)nc21 [Example 1, 1-methyl-3-isobutyl-8-[2-(4-diphenylmethyl-piperazinyl)ethyl]xanthine]
duration of inhibition of the broncho-spasm caused by a histamine aerosol at 4% [1]: more than 48 hours
